Assay results: patent publication US7666996B2, “Casein derived peptides and uses thereof” (priority 2000, dated 2010)

Columns and labels:
[1] = tested on: Non-Obese Diabetic (NOD) mice; experiment: Intraperitoneal Glucose Tolerance Test (IPGTT) in NOD mice; assay type: in vivo; settings: healthy NOD mice after 25 weeks
Procedure: Intraperitoneal Glucose Tolerance Test (IPGTT): The glucose tolerance test is the definitive method for investigating glucose metabolism and diabetic tendencies in mammals. Twenty five (25) weeks after receiving Synthetic peptides derived from casein, response to a glucose load was assessed with an intraperitoneal glucose tolerance test. Glucose injection consisted of 1 g/kg body weight. Glycemic values were determined from blood drawn prior to test (0 minutes) and 60 minutes after loading.

[2] = tested on: Non-Obese Diabetic (NOD) mice; experiment: Glucosuria in Non-Obese Diabetic (NOD) mice; assay type: in vivo; settings: for prevention of onset of glucosuria (in words): additional series, assayed at week 16, data not shown
Procedure: Juvenile (Type I, IDDM) diabetes in Non-Obese Diabetic (NOD) mice:
Peptides derived from natural casein: NOD mice are a commonly used model for research of autoimmune disease and human Juvenile Diabetes. Six week old female NOD mice received either one or two injections per week of 100 μg of peptides derived from natural casein, for a total of 5 or 10 treatments. Control mice received no treatment. The severity of disease was determined according to glucosuria, which was measured using Combi test sticks [Gross, D. J. et al (1994), Diabetology, 37:1195]. Results were expressed as the percent of glucosuria-free mice in each sample over a 365-day period.
Synthetic peptides derived from casein: In another experiment, 6 week old female NOD mice received one injection per week of 100 μg of Synthetic peptides derived from casein for a total of 5 treatments. Control mice received no treatment. Results were expressed as the number of healthy mice in the various treated groups.

Sup-T1 cells = experiment: Sup-T1 lymphocyte proliferation (cell counts); assay type: cell-based, human; settings: data not shown
Procedure: [^3H]-thymidine incorporation test: In order to test the effect of peptides derived from natural casein on T cell proliferation, several concentrations of peptides derived from natural casein (10 mg/ml stock in RPMI) were added to Sup-T1 cell cultures in 96 flat bottom microwell plate (5000 cells/well), as described for HIV-1 infection in Sup-T1 cells. Cells were counted and their viability was determined by trypan blue dye exclusion. They were pulsed with [^3H]-thymidine at each time point (3, 7, 10 and 14 days) for 18 hours (over night) and harvested on glass fiber filters for radioactivity reading (Incorporation of [^3H]-thymidine into cellular DNA is proportional to degree of cell proliferation).

[3] = tested on: murine bone marrow progenitor cells; experiment: CFU-GEMM colonies from murine bone marrow cells, differential counts; assay type: cell-based; settings: 53% in controls
Procedure: Proliferation of megakaryocytes in multipotential colonies (CFU-GEMM) from murine bone marrow cells: Primary bone marrow cells (1×10^5 per ml) from 8-12 week-old C3H/HeJ […], 95% air, at 37° C. The medium, appropriate for the growth of multipotential colonies (CFU-GEMM), contained 1% BSA (Sigma), 10^−4 M thioglycerol (Sigma), 2.8×10^−4 M human transferrin (TF, Biological industries, Israel), 10% WEHI-CM as a source of IL-3 and 2 units per ml erythropoietin (rhEPO, R & D Systems, Minneapolis). […] They were picked with a micropipette, cytocentrifuged and stained with May-Grunwald-Giemsa for differential counts. At least 700 cells were counted for each preparation.
Proliferation of Dendritic cells in CFU-GEMM: Multipotent (CFU-GEMM) colonies grown from primary bone marrow cells as described for the assay of megakaryocyte proliferation above were collected, stained and counted for dendritic cells. At least 700 cells were counted for each preparation.
Proliferation of Plasma cells in CFU-GEMM: Multipotent (CFU-GEMM) colonies grown from primary bone marrow cells as described for the assay of megakaryocyte proliferation above were collected, stained and counted for plasma cells. At least 700 cells were counted for each preparation.
Proliferation of Macrophage Cells in CFU-GEMM: Multipotent (CFU-GEMM) colonies grown from primary bone marrow cells as described for the assay of megakaryocyte proliferation above were collected, stained and counted for macrophage cells. At least 700 cells were counted for each preparation.
Proliferation of Red Blood Cells in CFU-GEMM: Multipotent (CFU-GEMM) colonies grown from primary bone marrow cells as described for the assay of megakaryocyte proliferation above were collected, stained and counted for red blood cells. At least 700 cells were counted for each preparation.
Proliferation of Polymorphonuclear Cells (PMN) in CFU-GEMM: Multipotent (CFU-GEMM) colonies grown from primary bone marrow cells as described for the assay of megakaryocyte proliferation above were collected, stained and counted for polymorphonuclear cells. […]

[4] = tested on: human Peripheral Blood Stem Cells (K562 target cells); experiment: Natural Killer (NK) cell activity in cultured human PBSC; assay type: cell-based
Procedure: From human Peripheral Blood Stem Cells (PBSC): PBSC of G-CSF treated subjects were separated on a FICOLL gradient, washed twice with RPMI-1640 medium containing 10% FCS and glutamine and seeded into 1.5 ml wells with or without peptides derived from natural casein or synthetic peptides derived from casein, as indicated, (0-500 μg per ml). Following two days incubation the cells were assayed for Natural Killer activity by measuring radioactivity released from ^35S-labeled K562 target cells (NEG-709A, 185.00 MBq, […] EASYTAGth Methionine, L-[^35S] 43.48 TBq per mmol, 1175.0 Ci per mmol, 0.488 ml, Boston USA). Two concentrations of effector cells (2.5×10^5 and 5×10^5 cells per well) were incubated with 5×10^3 target cells per well (effector:target cell ratios of 50:1 and 100:1, respectively) in U-bottomed 96 well tissue culture plates. The cells were incubated for 5 hours at 37° C. in 5% CO2, 95% air and precipitated by 5 minutes centrifugation at 1000 rpm. ^35S release was measured in 50 μl samples of the supernatant liquid.

[5] = tested on: HIV-1 (CEM lymphocyte cells); experiment: Inhibition of HIV-1 infection of CEM lymphocytes; assay type: cell-based; settings: for Lymphocyte cell numbers: day 7; for HIV-1 infection level, HIV-P24 antigen: control 0.52
Procedure: Peptides: Peptides [either peptides derived from natural casein or synthetic peptides derived from casein (2-26 amino acids in length, see table 3)] supplied as lyophilized powder were resuspended in RPMI complete medium and added to cell cultures at a final concentrations of 50 to 1000 μg per ml.
Cells: Several types of freshly isolated human cells (primary cells) and cell lines are known to be susceptible to in vitro HIV-1 infection, although essentially any cell displaying even low surface levels of the CD4 molecule can be considered a potential target for HIV-1 infection. Two commonly used human cell lines which are highly sensitive for HIV-1 infection were chosen, CEM and Sup-T1.
CEM is a human T4-lymphoblastoid cell line initially derived by G. E. Foley et al. [(1965), Cancer 18:522] from peripheral blood buffy coat of a person with acute lymphoblastic leukemia. These cells were continuously maintained in suspension in medium, and have been used widely for analysis of infectivity, antiviral agents and neutralizing antibodies.
Virus: The HIV virus strain employed was HIV-1IIIB, originally designated HTLV-IIIB. Concentrated culture fluids of peripheral blood from several patients with AIDS or related diseases were used to establish a permanent productive infection in H-9 cells. This subtype B virus has high capacity to replicate in human T-cell lines. Viral titer was 5.38 ng per ml in stock solution.
HIV-1 P^24 antigen capture assay: An HIV-1 P^24 Antigen capture assay kit employed was designed to quantitate the HIV-1 P^24 core antigen, which is proportionally related to the degree of viral production in cells. This kit was purchased from the AIDS Vaccine program of the SAIC-NCI-Frederick Cancer Research Institute, P.O. Box B, Frederick, Md. 21702, USA and included 96 well plates coated with monoclonal antibody to HIV-1 P^24, primary antibody-rabbit anti-HIV P^24 serum, secondary antibody-Goat anti-rabbit-IgG (H+L) peroxidase conjugated antibody, TMB peroxidase substrate system and lysed HIV-1 P^24 standard. The HIV-1 P^24 antigen capture assay was analyzed by Organon-Technica ELISA reader at 450 nm with a reference at 650 nm.
HIV-1 P^24 antigen capture ELISA: HIV infection was measured with an indirect enzyme immunoassay which detects HIV-1 P^24 core antigens in tissue culture media. Tissue culture supernatant was reacted with primary rabbit anti-HIV-1 P^24 antigen and visualized by peroxidase conjugated goat anti rabbit IgG. The reaction was terminated by adding 4N H2SO4, wherein the intensity of the color developed is proportional to the amount of HIV-1 antigen present in the tissue culture supernatant.
HIV infection of human cultured CD4 cells: For longer incubations, the cells (CEM, Sup-T1) were preincubated with several increasing concentrations of peptides derived from natural casein (50-1000 μg per ml) or synthetic peptides derived from casein (10-500 μg per ml) for 24 (for synthetic and natural peptides) and 48 (only for natural peptides) hours and HIV-1IIIB (45 pg per ml final concentration) was added to each well thereafter. For the shorter incubations (3 hours), HIV-1IIIB was preincubated with the peptides for 3 hours and then added to cells (5000 cells/well) in tissue culture plates. Controls were IF (Infected, cells cultured with HIV-1 and without peptides), UIF (Uninfected, cells cultured without HIV-1 and without peptides) and UIF +Ch (Uninfected+peptides derived from natural casein, cells cultured in the presence of peptides derived from natural casein {50-1000 μg per ml}) to test the effect of peptides derived from natural casein and synthetic peptides derived from casein on cell viability and growth. Cells were counted for viability and proliferation rate on day 7, 10 and day 14 post infection (the day of P^24 antigen culture supernatant harvest). Cells and tissue culture supernatants (media) were harvested and lysed immediately in 1/10 volume of 10% Triton X-100. […]

[6] = tested on: murine bone marrow progenitor cells; experiment: CFU-GM colony formation with IL-3 and G-CSF, murine bone marrow; assay type: cell-based
Procedure: Cells were scored in the macroscopic colonies grown from murine bone marrow cells prepared similarly to the CFU-GEMM colonies previously described. Cells were incubated with hematopoietic factors cytokine (IL-3) and colony stimulating factor (G-CSF), and 25 μg or more of synthetic peptides derived from casein (J), representing amino acids 1-22 of α-S1 casein, or 30-4, representing amino acids 1-6 of α-S1 casein, for 14 days, individually or in combination. The stimulation of colony formation (CFU) is expressed as the number of myeloid colonies in 10^5 plated MNCs.
Synthetic peptides derived from αS1-casein stimulate Granulopoietic (GM) cell proliferation in CFU-GM: As mentioned hereinabove, formation and expansion of CFU-GM (Granulocyte and Macrophage) colonies, and CFU-GEMM (Granulocyte, Erythroid, Macrophage and Megakaryocyte) colonies constitute one of the early events in the differentiation of hematopoietic progenitor cells in the bone marrow.

[7] = tested on: irradiated, bone marrow transplanted mice; experiment: Leukocyte and platelet reconstitution in bone marrow transplant recipient mice; assay type: in vivo; settings: 800 cGy; 1.0 mg i.p. daily, days 4-7
Procedure: Leukocyte and platelet reconstitution in bone marrow transplant recipient Mice: BALB/c mice were sub-lethally irradiated at a source to skin distance of 70 cm, dosage of 50 cGy per minute, for a total of 600 cGy. The irradiated mice were […] casein, synthetic peptides derived from casein (13-26 amino acids, see Table 3 above), or human serum albumin (controls), following a double-blinded protocol. Leukocyte reconstitution was determined according to cell count in peripheral blood collected at indicated intervals from 6 to 12 days post treatment. Platelet reconstitution was determined by cell count in blood collected from the retro orbital plexus, into EDTA-containing vials, at indicated intervals from day 6 to day 15 post treatment. […]
In a third series of experiments, the mice were irradiated (800 cGy), reconstituted and injected intraperitoneally with 1.0 mg synthetic peptides derived from casein (peptides 3a and 4P, representing the first 6 and 12 amino acids of the N terminus of αS1 casein, respectively—see Table 3 above) daily, on days 4, 5, 6 and 7 post-transplantation. Platelet reconstitution was assayed at 10 and 12 days post-transplantation.
In a fourth series of experiments, F1 mice were irradiated (750 cGy), reconstituted with syngeneic bone marrow, and injected intravenously 24 hours later with 1 mg per mouse of synthetic peptides derived from casein representing amino acids 1-22 of the N terminus of αS1 casein. In addition, 2 (two) groups of mice were treated each with a natural fraction of αS1 casein position 1-23, and a fraction of peptides derived from natural κ-casein, representing amino acid coordinates 106-169 of κ-casein (SEQ ID NO: 27). WBC counts were conducted on days 5, 7, 10 and 12 post-transplantation.

RPKHPIKHQ [X, synthetic peptide, N-terminal 9 amino acids of αS1 casein]
IPGT test outcome (in words) [1]: no evidence of abnormal glucose metabolism
prevention of glucosuria (in words) ([2]; 100 μg once weekly for 5 weeks, 25 weeks): highly effective
Healthy/Total (sugar not detected in urine) ([2]; female NOD mice, 100 μg synthetic peptide once weekly for 5 weeks, evaluated after 25 weeks): 3/5
Urine Sugar ([2]; individual healthy NOD mice, after 25 weeks): Negative
increase in lymphocyte cell number in infected cells (Sup-T1 cells; 250 μg per ml): 80%
increase in lymphocyte cell number in infected cells (Sup-T1 cells; 500 μg per ml): 33%

RPKH [2P, synthetic peptide, N-terminal 4 amino acids of αS1 casein]
prevention of onset of glucosuria (in words) [2]: effectively prevented the onset of glucosuria
red blood cells, % of total cell count [3]: 71%

RPK [1P, synthetic peptide, N-terminal 3 amino acids of αS1 casein]
target cell lysis relative to untreated controls ([4]; PBS cells from 5 donors with hematopoietic disease, 25-250 μg/ml): from 2- to greater then 8-fold
effect on NK activity in PBSC from healthy human donors ([4]; healthy donors): No significant effect
Lymphocyte cell numbers ([5]; 100 μg per ml, infected control 1.06×10^6): 1.29×10^6
HIV-1 infection level, HIV-P24 antigen ([5]; 100 μg/ml, 7 days post infection): 0.17 ng P^24 Antigen/ml
Lymphocyte cell numbers ([5]; 500 μg per ml, infected control 1.06×10^6): 2.01×10^6
HIV-1 infection level, HIV-P24 antigen ([5]; 500 μg/ml, 7 days post infection): 0.14 ng P^24 Antigen/ml
prevention of onset of glucosuria (in words) [2]: effectively prevented the onset of glucosuria

RPKHPI [4P, synthetic peptide, N-terminal 6 amino acids of αS1 casein]
myelocyte formation with G-CSF and IL-3 (in words) ([6]; 25 μg or more, 14 days): synergistic increase
increase in proliferation of granulocytes ([6]; in the presence of G-CSF): 18%
Cell counts ([5]; 25 μg per ml, virus pre-treated 3 hours, infected control 1.06×10^6): 1.26×10^6
Cell numbers ([5]; 250 μg per ml, virus pre-treated 3 hours, infected control 1.06×10^6): 1.59×10^6
HIV-P24 antigen, viral particles vs infected control (in words) ([5]; virus preincubated 3 hours, 7 days post infection): dose dependent reduction
increase in platelet counts over control, 12 days post transplantation [7]: 29%
platelet counts, 12 days post transplantation [7]: 872000 mL⁻¹
